Legend:
[1] = tested on: p21 and p16 in wildtype and LMNA^G609G/G609G MEFs; experiment: Western blotting of senescence markers in MEFs; format: cell-based, mouse; conditions: 4-day CBD treatment
Experimental: In the step of determining the protein expression levels of senescence markers, the primary mouse embryonic fibroblasts (MEFs) at passage 3 were seeded and cultured in 6-well plate and treated with CBD for 4 days. The cells were then washed twice with ice-cold phosphate buffered saline (PBS). RIPA 150 buffer (20 mM Tris-HCl pH 7.5, 1 mM EDTA pH 8.0, 150 mM NaCl, 1% Nonidet P-40, 0.5% sodium deoxycholate) supplemented with 1 mM dithiothreitol (DTT) and proteinase inhibitors was added to the cells and shook at 4° C. for 15 minutes. The cells were then collected into Eppendorf tubes and centrifuged at 12000 rpm at 4° C. for 10 minutes. The supernatant was collected and 6×SDS sample buffer (20 mM Tris-HCl pH 7.5, 30% glycerol, 10% sodium dodecyl sulfate (SDS), 0.6 M DTT, 0.03% bromophenol blue) was added. The samples were boiled for 5 minutes. Then they were ready for sodium dodecyl sulfate-polyacrylamide gel electrophoresis (SDS-PAGE) for Western blotting analysis. Depending on the sizes of target proteins, 7-15% polyacrylamide separating gel and 4% polyacrylamide stacking gel were made. Samples and protein ladders were loaded onto the polyacrylamide gel. Sodium dodecyl sulfate-polyacrylamide gel electrophoresis (SDS-PAGE) was performed in running buffer (25 mM Tris-HCl, 190 mM glycine and 0.1% SDS) under constant voltage of 100V for 20-30 minutes until the samples and protein ladders reached the separating gel. By then, SDS-PAGE was set to run under constant voltage of 120V for about 1 hour, depending on the size of target proteins. The proteins in the separating gel were transferred to polyvinylidene difluoride (PVDF) membrane in transfer buffer (25 mM Tris-HCl, 190 mM glycine, and 20% methanol) at constant current 0.4 A for 1.5 hours on ice. The membranes were blocked with 5% skimmed milk in phosphate buffered saline Tween-20 solution (PBST): 1×PBS and 0.1% Tween-20 and shook at room temperature for 1 hour. Primary antibodies diluted in 5% skimmed milk in PBST were added to the membrane and shook at 4° C. overnight. […]

Caenorhabditis elegans = experiment: Lifespan analysis of Caenorhabditis elegans; format: in vivo; conditions: C. elegans
Experimental: In step of analyzing the lifespan of Caenorhabditis elegans, for chemical treatment in Caenorhabditis elegans, chemical was added to the nematode growth medium (NGM) dishes. The NGM with agarose was autoclaved and then cooled down to below 65° C. The different concentrations of chemical were added to NGM. The NGM was then poured into 60 mm dishes and incubated at room temperature overnight. The solidified NGM dishes were stored at 4° C. Escherichia coli OP50 strain was used as the food source for C. elegans. A single colony of OP50 was incubated in 200 mL of lysogeny broth (LB) medium at 37° C. overnight. The OP50 was then killed by incubation at 65° C. for […]. The dead OP50 was spread throughout the surface of the NGM dishes. The NGM dishes with dead OP50 and CBD were stored at 4° C. for up to 2 weeks. The synchronization of C. elegans was carried out by the bleaching method. 20 L4 larvae were picked to each 60 mm dish with different concentrations of chemical and cultured at 20° C. They were monitored every day, and the number of living, dead and missing C. elegans were recorded. The C. elegans were transferred to fresh Petri dishes every 2 days to separate the target worms from their offspring and to ensure if they had enough food source. 10-20 μM of CBD was identified to be the optimal dosage for extending the lifespan of C. elegans.

LMNA^G609G/G609G MEFs = experiment: RNA sequencing of differentially expressed genes in MEFs; format: cell-based, mouse; conditions: 10 μM CBD, 4 days
Experimental: Primary mouse embryonic fibroblasts (MEFs) at passage 3 were seeded and cultured in 10-cm dish and treated with CBD for 4 days. The cells were washed twice with ice-cold phosphate buffered saline (PBS), and 1 mL TRIzol was added. After incubation at room temperature for 5 minutes, the samples were collected into Eppendorf tubes. The supernatants were collected to Eppendorf tubes. 200 μl of chloroform was added to each sample, and the tubes were shaken vigorously by hand for 15 seconds. The samples were incubated at room temperature for 5 minutes and then centrifuged at 4° C. at 12000 rcf for 15 minutes. After centrifugation, the solution was separated into 3 layers. 450 μl of the clear top layer was collected, and 500 μl of isopropanol was added. […] The RNA quantitation was done using Nanodrop and Agilent 2100 Bioanalyzer. The RNA integrity was measured using Agilent 2100 Bioanalyzer. The RNA purity was measured using agarose gel electrophoresis and Agilent 2100 Bioanalyzer. […]
Illumina sequencing system was used for paired-end reads of read lengths PE150. […] The results were validated by quantitative polymerase chain reaction (qPCR). […] The concentration of RNA was measured by nanodrop. […] Then the samples were ready for qPCR. […] The delta-delta-ct value was calculated by the qPCR machine based on the signal of target genes normalized with housekeeping genes.

[2] = wildtype and LMNA^G609G/G609G MEFs

Structure (SMILES): C=C(C)[C@@H]1CCC(C)=C[C@H]1c1c(O)cc(CCCCC)cc1O [CBD, Cannabidiol]
- progerin levels ([1]; MEFs): not affected
- p16 level [1, 2]: downregulate
- p21 level [1, 2]: downregulate
- maximum lifespan increase (Caenorhabditis elegans; 10 or 20 μM CBD): 8-12.5%
- median lifespan increase (Caenorhabditis elegans; 10 or 20 μM CBD): 55-61.5%
- optimal dosage for extending the lifespan (Caenorhabditis elegans; CBD in NGM dishes, 20° C.): 10 to 20 µM
- differentially expressed genes restored to normal levels (LMNA^G609G/G609G MEFs): 1066 out of 1363
- share of differentially expressed genes restored to normal levels (LMNA^G609G/G609G MEFs): 78%

— US20220354805A1, “Cannabidiol (CBD) as Chemical for Treating Aging-related Degenerative Diseases and Promoting Health Aging” (Hemix Biotech Limited, priority 2021, published 2022)
